The nature of data set [1]: Antiproliferative activity against human MV4-11 cells harboring MLL-AF4 assessed as inhibition of cell viability after 72 hrs by CCK8-based colorimetric assay. Format: functional. To be noted: MV4-11, 72 h.
Data set [2] is described as follows: Antiproliferative activity against human K562 cells harboring BCR-ABL assessed as inhibition of cell viability after 72 hrs by CCK8-based colorimetric assay. The following applies: K562, 72 h. The format is functional. On the technique in general: Tetrazolium dyes change colour on reduction, which living cells bring about.
The nature of data set [3]: Antiproliferative activity against human MV4-11 cells harboring MLL-AF4 after 7 days by CellTiter-Glo luminescent cell viability Assay. The following applies: MV4-11, 168 h. Format: functional, cell-based.
Data set [4] concerns the target T1, WD repeat-containing protein 5 (Homo sapiens, UniProt P61964). Briefly: Inhibition of C-terminal 5-FAM-ARTEVHLRKS binding to WDR5 (unknown origin) by fluorescence polarization assay.
Data set [5] can be described thus: Permeability of the compound after 4 hrs by PAMPA. The format is ADME. To be noted: read-out: permeability. (In PAMPA a lipid-coated filter parts donor from acceptor wells.)
Data set [6] deals with T1, WD repeat-containing protein 5. Briefly: Inhibition of N-terminal FITC-GSARAEVHLRKS binding to WDR5 (unknown origin) by fluorescence polarization assay. (In general: Fluorescence polarisation rises when a labelled molecule tumbles more slowly, as on binding a larger partner.)
For data set [7], the target named is MLL1/ASH2L/RBBP5/WDR5 complex (Homo sapiens, UniProt P61964+Q03164+Q15291+Q9UBL3). Briefly: Inhibition of recombinant MLL1 (unknown origin) interaction with recombinant ASH2L/RBBP5/WDR5 (unknown origin) assessed as decrease in histone methylation after 60 mins by Alpha Screen assay. Format: protein-complex assay.
The subject of a further data set is K562. Briefly: Selectivity ratio of IC50 for human K562 cells harboring BCR-ABL to IC50 for human MV4-11 cells harboring MLL-AF4. The format is functional.

Usually IC50 stands for the point on the concentration scale where inhibition reaches its midpoint. For the molecule `CCC(CC)(NC(=O)C(C)C)C(=O)N[C@@H](CCCNC(=N)N)C(=O)NC1(C(=O)NC(c2ccc(F)cc2)c2ccc(F)cc2)CCCC1`, the IC50 stood at 20.7 µM in data set [1], 37.8 µM in data set [2] and 25 µM in data set [3].

Molecule `Cc1c(F)c([N+](=O)[O-])cc(C(=O)Nc2cc(C(=O)OC3CCCCC3)ccc2N2CCN(C)CC2)c1Cl` showed an IC50 in data set [4] of more than 0.02 µM.

For `CC(C)OC(=O)c1ccc(N2CCN(C)CC2)c(NC(=O)c2ccc(F)c([N+](=O)[O-])c2)c1`, the IC50 in data set [4] stood at 1.17 µM; in data set [1] it was 13.3 µM; in data set [2], 58 µM. In addition, in data set [5], the Papp at 4 h was 61.4 ×10⁻⁶ cm/s.

For `Cc1c(F)ccc(C(=O)Nc2cc(C(=O)OC(C)C)ccc2N2CCN(C)CC2)c1Cl`, the IC50 in data set [4] was 0.264 µM; in data set [1], 57.1 µM; in data set [2], more than 100 µM. Besides, the Papp at 4 h in data set [5] was found to be 49.8 ×10⁻⁶ cm/s.

As to `CN1CCN(c2ccc(C(=O)Oc3ccccc3)cc2NC(=O)c2ccc(F)c([N+](=O)[O-])c2)CC1`, the IC50 amounted to 0.483 µM in data set [4], 10.8 µM in data set [1] and 11.6 µM in data set [2]. In data set [5], the Papp at 4 h turned out to be 60 ×10⁻⁶ cm/s.

Broadly, the Kd is the concentration at which binding is half-saturated. A lower Kd goes with tighter binding. As to `COC(=O)c1ccc(N2CCN(C)CC2)c(NC(=O)c2cccc(OC)c2)c1`, binding in data set [6] was put at a Kd of 3 µM.

Take `CN1CCN(c2ccc(C(=O)Oc3ccccc3)cc2NC(=O)c2ccc(F)c(N)c2)CC1`: in data set [4], the IC50 is more than 20 µM.

On to `COC(=O)c1ccc(N2CCN(C)CC2)c(NC(=O)c2cc(N)c(F)c(C)c2Cl)c1`, for which the IC50 is 0.0465 µM in data set [4], 4.6 µM in data set [7], more than 100 µM in data set [1] and more than 100 µM in data set [2]. Further, the Papp at 4 h in data set [5] amounted to 52.9 ×10⁻⁶ cm/s.

Take `Cc1c(F)ccc(C(=O)Nc2cc(C(=O)Oc3ccccc3)ccc2N2CCN(C)CC2)c1Cl`: the IC50 in data set [4] stood at 0.162 µM; in data set [1] it was 45.2 µM; in data set [2], 53.9 µM. Besides, in data set [5], the Papp at 4 h was determined as 48 ×10⁻⁶ cm/s.

Consider `CCOC(=O)c1ccc(N2CCN(C)CC2)c(NC(=O)c2ccc(F)c(C)c2Cl)c1`, for which the IC50 in data set [4] turned out to be 0.284 µM; in data set [1] it was 49.8 µM; in data set [2], 90.7 µM. Besides, in data set [5], the Papp at 4 h worked out at 44.9 ×10⁻⁶ cm/s.

In turn, `CN1CCN(c2ccc(C(=O)OC3CCCCC3)cc2NC(=O)c2ccc(F)c([N+](=O)[O-])c2)CC1` came in with an IC50 in data set [4] of more than 20 µM.

In the case of `CCOC(=O)c1ccc(N2CCN(C)CC2)c(NC(=O)c2ccc(F)c([N+](=O)[O-])c2)c1`, in data set [4], the half-inhibitory concentration (IC50) is more than 0.02 µM.

In data set [4], `Cc1c(F)ccc(C(=O)Nc2cc(C(=O)O)ccc2N2CCN(C)CC2)c1Cl` returned an IC50 of more than 20 µM.

In the case of `COC(=O)c1ccc(N2CCN(C)CC2)c(NC(=O)c2ccc(F)c(N)c2)c1`, in data set [4], the IC50 was more than 0.02 µM.

On to `COC(=O)c1ccc(N2CCN(C)CC2)c(NC(=O)c2ccc(F)c(C)c2Cl)c1`, for which the IC50 in data set [4] was 0.433 µM; in data set [1], more than 100 µM; in data set [2] it was more than 100 µM. Further, the Papp at 4 h in data set [5] stood at 59.8 ×10⁻⁶ cm/s.

With `CC(C)OC(=O)c1ccc(N2CCN(C)CC2)c(NC(=O)c2ccc(F)c(N)c2)c1`, in data set [4], the IC50 is more than 0.02 µM.

`COC(=O)c1ccc(N2CCN(C)CC2)c(NC(=O)c2ccc(F)c([N+](=O)[O-])c2)c1`: the IC50 is 0.454 µM in data set [4], 4.7 µM in data set [1] and 57.1 µM in data set [2]. Also, the “Ratio IC50” value with K562 amounted to 10. Also, the Papp at 4 h in data set [5] is 52.4 ×10⁻⁶ cm/s.

On to `Cc1c(F)ccc(C(=O)Nc2cc(C(=O)OC3CCCCC3)ccc2N2CCN(C)CC2)c1Cl`, for which, in data set [4], the IC50 is more than 20 µM.

On to `CN1CCN(c2ccc(C(=O)OC3CCCCC3)cc2NC(=O)c2ccc(F)c(N)c2)CC1`, for which the IC50 in data set [4] was more than 0.02 µM.

Regarding `Cc1c(F)c(N)cc(C(=O)Nc2cc(C(=O)Oc3ccccc3)ccc2N2CCN(C)CC2)c1Cl`, the half-maximal inhibitory concentration (IC50) in data set [4] was 0.0264 µM; in data set [7], 5.4 µM; in data set [1], 66.5 µM; in data set [2], 33.4 µM. For the same molecule, in data set [5], the Papp at 4 h turned out to be 38 ×10⁻⁶ cm/s.

With `Cc1c(F)c(N)cc(C(=O)Nc2cc(C(=O)OC3CCCCC3)ccc2N2CCN(C)CC2)c1Cl`, the IC50 in data set [4] was 0.0588 µM; in data set [1], more than 100 µM; in data set [2], more than 100 µM. Besides, in data set [5], the Papp at 4 h was determined as 5.6 ×10⁻⁶ cm/s.

Take `CN1CCN(c2ccc(C(=O)O)cc2NC(=O)c2ccc(F)c([N+](=O)[O-])c2)CC1`: in data set [4], the IC50 was more than 0.02 µM.

`COC(=O)c1ccc(N2CCN(C)CC2)c(NC(=O)c2cc([N+](=O)[O-])c(F)c(C)c2Cl)c1`: the IC50 in data set [4] is 0.245 µM; in data set [1], 3.4 µM; in data set [2], 17.2 µM. Also, the Papp at 4 h in data set [5] came out at 74.8 ×10⁻⁶ cm/s.

As for `Cc1c(F)c([N+](=O)[O-])cc(C(=O)Nc2cc(C(=O)Oc3ccccc3)ccc2N2CCN(C)CC2)c1Cl`, the IC50 in data set [4] is 0.812 µM; in data set [1], 9.9 µM; in data set [2], 15.7 µM. For the same molecule, the Papp at 4 h in data set [5] amounted to 56.3 ×10⁻⁶ cm/s.

Consider `CC(C)NCC(O)COc1cccc2ccccc12` (stereo unspecified) [PROPRANOLOL], for which the Papp at 4 h in data set [5] came to 98.7 ×10⁻⁶ cm/s.

The values are drawn from ChEMBL document CHEMBL3856283, “Structure-based design of ester compounds to inhibit MLL complex catalytic activity by targeting mixed lineage leukemia 1 (MLL1)-WDR5 interaction” (Bioorg Med Chem, 2016).
